According to patent publication US12109177B2 (priority 2021, dated 2024):
Entries after “also recorded” stand apart in the source; their conditions may differ. Read-outs that look alike come from different tables or passages of the source.

What was measured:
blood neutrophils [1] = conditions: rabbit, in vivo
VX2 brain tumor = conditions: rabbit, in vivo
flank GL261 tumor = conditions: in vivo
blood neutrophils [2] = conditions: mouse, in vivo

Compound | blood neutrophil count (blood neutrophils [1]) | long-term survivors (VX2 brain tumor) | mice died of treatment-related (immediate) toxicity (flank GL261 tumor; female, C57BL6, mouse) | mice cured (total tumor clearance, absence of any tumor after 3 weeks) (flank GL261 tumor; mouse) | mice with partial tumor clearance (initial reduction, later regrowth) (flank GL261 tumor; mouse) | therapeutic effect of agent alone (flank GL261 tumor; mouse) | lymphocyte counts (blood neutrophils [1]) | other blood cell types (blood neutrophils [1]) | time to neutrophil count rebound after spore injection (blood neutrophils [1]) | blood neutrophil count (blood neutrophils [2]) | other blood cell counts (blood neutrophils [2]) | lymphocyte count (blood neutrophils [2]; ip) | deaths from tumor regrowth (VX2 brain tumor) | intratumoral accumulation of neutrophils (VX2 brain tumor)
O=P1(N(CCCl)CCCl)NCCCO1 (stereo not drawn) [CPA, cyclophosphamide] | significant neutrophil suppression | without any long-term survivor | – | – | – | – | – | – | – | – | – | – | – | –
NC(=O)NO [HU, hydroxyurea] | – | 8 | 2/12 | 9/12 | 1/12 | did not show any noticeable therapeutic effects | not significantly affected | has not affected other blood cell types significantly | at least 3 days | greatly suppressed the neutrophil levels; also recorded: drastically reduced the neutrophil counts | also affected in various degrees | significant drop of lymphocytes | one | effective in suppressing the intratumoral accumulation of neutrophils
